We go through four molecules from patent US6787527B1, “Methods of preventing and treating HIV infection” (Duke University, priority 1994, dated 2004).

In data set [1] the test system is HIV-1-BaL. Kind of data set: HIV-1 infection of monocytes / mononuclear phagocytes (Mo, Mac), supernatant medium RT activity. The following applies: for inhibition of productive HIV-1 infection: Mo, Mac, added at viral inoculation and left in throughout culture. In kind it is cell-based. As to the method:
(§1) Monocytes and lymphocytes were isolated and cultured as previously described (J. Exp. Med. 174:1477 (1991)). Briefly, monocytes were isolated by sequential ficoll-sodium diazotrate and Percoll gradients with subsequent adherence to cultureware plastic, and then cultured in Dulbecco's modified Eagle medium (GIBCO, Grand Islands, N.Y.) with 10% unheated human serum. Lymphocytes were from ficoll-sodium diazotrate gradients, and were cultured with anti-CD3/anti-CD28 antibody and subsequently IL-2. Reverse transcription (RT) was measured as described (Weinberg et al, J. Exp. Med. 174:1477 (1991)) using a phosphoimager device for quantification. Leukemia cell lines Jurkat, CEM, HL-60, and U937 were obtained from American Type Culture Collection (Rockville, Md.). The cells were cultured in RPMI-1640 with 10% fetal bovine serum (Hyclone, Logan, Utah). Cobalamins were obtained from Sigma Chemical Company (St. Louis, Mo.). The cobalamins had extremely low endotoxin content, as determined by Limulus amebocyte lysate testing (Whitaker Bioproducts, Walkerville, Md.). When tested as a 3 mM solution, the cobalamins had less than 0.25 EU/ml. Cobalamins were not toxic for Mo, Mac, Lym, and leukemia cell line cells, as determined by morphology under phase microscopy, Wright staining of methanol-fixed cells, trypan blue exclusion, and thymidine incorporation were carried out in accordance with standard techniques.
Monocytes were inoculated at time zero with HIV-1-Bal (Weinberg et al, J. Exp. Med. 174:1477 (1991)) (MOI ˜0.1)and cultured with the designated cobalamin for 7-14 days. Supernatant medium RT was then measured (Weinberg et al, J. Exp. Med. 174:1477 (1991)). Results are provided as RT activity (mean±SEM of triplicates)and are derived from one experiment.

The test system of data set [2] is HIV-1-IIIB. Nature of the data set: HIV-1 infection of PBL, supernatant medium RT activity. In kind it is cell-based. The following applies: added at viral inoculation and left in throughout culture. The protocol:
as §1
PBL were inoculated with HIV-1-IIIB (MOI ˜0.1) and cultured with the designated cobalamin for 15-25 days. Supernatant medium RT was then measured. Results are provided as RT activity (mean±SEM of triplicates) and are derived from one experiment.

In data set [3] the test system is HIV-1-IIIB. Nature of the data set: HIV-1 infection of leukemia cell lines Jurkat, CEM, HL-60, U937, supernatant medium RT activity. The format is cell-based. The following applies: HL-60, U937 cell lines. As to the method:
as §1
Cells of the T lymphoblast cell line Jurkat and CEM, the myeloblast cell line HL-60, and the monoblast cell line U937 were inoculated with HIV-1-IIIB (MOI ˜0.1) and cultured for with the designated cobalamin for 10-20 days. Supernatant medium RT was then measured. Results are provided as RT activity (mean±SEM of triplicates) and are derived from one experiment.

Data set [4] concerns the target T1, recombinant CD4 with gp120 from HIV-1-IIIB (UniProt P01730+P04578).
T1 construct: gp120 from HIV-1-IIIB
Nature of the data set: CD4-gp120 binding, gp120 from HIV-1-IIIB. The protocol:
(§2) Cobalamins were incubated with CD4 and gp120 from HIV-1-IIIB in wells of microtiter wells, and binding was assessed as previously described. […] Serum from an HIV-1-infected person containing anti-gp120 antibody served as the “positive control”.
(§3) To determine whether cobalamins modified the binding of HIV-1 gp120 to CD4, the abilities of CN-Cbl, OH-Cbl, Me-Cbl, and Ado-Cbl to inhibit binding of recombinant CD4 with gp120 from HIV-1-IIIB or HIV-1-MN were tested (FIG. 2). No inhibition of binding was observed.

Data set [5] addresses T2, recombinant CD4 with gp120 from HIV-1-MN (UniProt P01730+P05877).
T2 construct: recombinant CD4 with gp120 from HIV-1-IIIB or HIV-1-MN
Nature of the data set: CD4-gp120 binding, gp120 from HIV-1-MN. As to the method:
as §2, §3

A further data set has as its target T3, RT (Human immunodeficiency virus type 1 group M subtype B, UniProt P04585).
T3 construct: added to cell-free medium containing RT
Nature of the data set: RT activity in cell-free medium. The format is biochemical, HIV-1. The following applies: 1 to 1000 μM added to cell-free medium containing RT.

Data set [6] deals with Mo, Mac, PBL, human leukemia cell lines Jurkat, CEM, HL-60, U937. Nature of the data set: Toxicity for cells (morphology, Wright staining, trypan blue exclusion, thymidine incorporation). The following applies: concentrations ≦600 μM. In kind it is cell-based. As to the method: as §1, with “When tested as a 3 mM solution, the cobalamins had less than 0.25 EU/ml.” left out
For data set [7], the system named is HIV-1-BaL. Nature of the data set: Syncytium (multinucleated giant cell) formation in HIV-1-inoculated monocytes. The following applies: 67 μM, HIV-1-BaL MOI ~0.1, 14 days. In kind it is cell-based. As to the method:
OH-Cbl, Me-Cbl, Ado-Cbl, and CN-Cbl were not toxic for Mo, Mac, PBL, or cells of the human leukemia cell lines Jurkat, CEM, HL-60, or U937 at concentrations ≦600 μM. When added to the cultures of Mo, Mac, or PBL at the time of viral inoculation on day zero and left in throughout the culture period, there was potent inhibition of productive infection as judged by supernatant medium RT activity (see FIG. 1). Further evidence of the cobalamin inhibitory effect was derived from studies examining syncytium formation. Populations of monocytes not inoculated with virus were generally mononuclear, while those inoculated with HIV-1-BaL (MOI ˜0.1) cultured (14 days) without OH-Cbl (67 μM) had numerous multinucleated giant cells (syncytium).

Data set [8] deals with U1 cells and OM-10.1 cells (HIV-1 integrated provirus). Kind of data set: TNF- or PMA-induced viral RT expression in latently-infected leukemia cells. The format is cell-based, human. The note with it: 250 μM; 500 U/ml TNF or 80 nM PMA; U1 and OM-10.1 cells. The protocol: To determine whether OH-Cbl would inhibit the ability of latently-infected leukemia cells to produce RT after stimulation with tumor necrosis factor (TNF) or phorbol myristate acetate (PMA), U1 (U937 monoblastic cell line with HIV-1 integrated provirus) cells (NIH AIDS Repository) and OM-10.1 cells (HL-60 myelobastic cell line with HIV-1 integrated provirus) (Dr. Clay Smith, Duke University, Durham, N.C.) were treated with 500 U/ml TNF or 80 nM PMA (with or without 250 μM OH-Cbl).

For data set [9] the following is noted: humans, 5 to 7 grams by bolus intravenous infusion; cited from earlier work.

On to `C/C1=C2/[N-]C([C@H](CC(N)=O)[C@@]2(C)CCC(=O)NC[C@@H](C)OP(=O)([O-])O[C@H]2[C@@H](O)[C@@H](n3cnc4cc(C)c(C)cc43)O[C@@H]2CO)[C@]2(C)N=C(/C(C)=C3N=C(/C=C4N=C1[C@@H](CCC(N)=O)C\4(C)C)[C@@H](CCC(N)=O)[C@]\3(C)CC(N)=O)[C@@H](CCC(N)=O)[C@]2(C)CC(N)=O.[CH2-][C@H]1O[C@@H](n2cnc3c(N)ncnc32)[C@@H](O)[C@@H]1O.[Co+3]` [Ado-Cbl, adencobalamin], for which the “inhibition of productive HIV-1 infection” value in the data set with HIV-1-BaL [1] and in the data set with HIV-1-IIIB [2] was “inhibited” in each case. Further, in the data set on HIV-1-IIIB [3], the “inhibition of HIV-1 infection” value is recorded as “did not inhibit”. Besides, the “inhibition of CD4-gp120 binding” value in data set [4] and in data set [5] was “No inhibition” throughout. In addition, the “inhibition of RT activity” value against RT is given as “inhibition of RT activity was not observed”.

As for `C/C1=C2/[N-][C@H]([C@H](CC(N)=O)[C@@]2(C)CCC(=O)NC[C@@H](C)OP(=O)([O-])O[C@H]2[C@@H](O)[C@@H](n3cnc4cc(C)c(C)cc43)O[C@@H]2CO)[C@]2(C)N=C(/C(C)=C3N=C(/C=C4N=C1[C@@H](CCC(N)=O)C\4(C)C)[C@@H](CCC(N)=O)[C@]\3(C)CC(N)=O)[C@@H](CCC(N)=O)[C@]2(C)CC(N)=O.[CH3-].[Co]` [Me-Cbl], the “inhibition of productive HIV-1 infection” value with HIV-1-BaL [1] and in the data set on HIV-1-IIIB [2] was “inhibited” in each case. In addition, the “inhibition of HIV-1 infection” value with HIV-1-IIIB [3] was “did not inhibit”. The “inhibition of CD4-gp120 binding” value in [4] and in data set [5] was “No inhibition” in each case. The “inhibition of RT activity” value against RT is “inhibition of RT activity was not observed”.

As to `C/C1=C2/[N-][C@H]([C@H](CC(N)=O)[C@@]2(C)CCC(=O)NC[C@@H](C)OP(=O)([O-])O[C@H]2[C@@H](O)[C@@H](n3cnc4cc(C)c(C)cc43)O[C@@H]2CO)[C@]2(C)N=C(/C(C)=C3N=C(/C=C4N=C1[C@@H](CCC(N)=O)C\4(C)C)[C@@H](CCC(N)=O)[C@]\3(C)CC(N)=O)[C@@H](CCC(N)=O)[C@]2(C)CC(N)=O.[Co+3].[OH-]` [OH-Cbl, hydroxocobalamin], the “inhibition of HIV-1 infection” value with HIV-1-BaL [1] (Mo incubated simultaneously with 250 μM and HIV-1 for 4 hours, washed, cultured 10 days) is recorded as “no inhibition”; in the data set with HIV-1-IIIB [3] it was “did not inhibit”. Besides, in the data set on HIV-1-BaL [1] (Mo inoculated and cultured 6 days, washed, then cultured with 250 μM), the “inhibition of subsequent RT production” value is listed as “no inhibition”. Also, the “inhibition of RT” value in the data set with HIV-1-BaL [1] (Mo pretreated with 250 μM for 24 hours, washed, then inoculated with HIV-1-BaL) was “approximately 80%”. Also, the “inhibition of productive HIV-1 infection” value in the data set on HIV-1-BaL [1] and with HIV-1-IIIB [2] was “inhibited” in each case. Besides, the toxicity for cells result in data set [6] was “not toxic”. Also, the “inhibition of syncytium formation” value in the data set on HIV-1-BaL [7] stood at 100%. The “inhibition of expression of induced viral RT” value in data set [8] is reported as “did not inhibit”. The “inhibition of CD4-gp120 binding” value in [4] and in data set [5] was “No inhibition” each time. For the same molecule, at RT, the “inhibition of RT activity” value is “inhibition of RT activity was not observed”. Also, the resultant serum levels in [9] is reported as “μM to mM”. Also, in [9], the side effects result was “minimal”.

Regarding cyanocobalamin [CN-Cbl], the “inhibition of productive HIV-1 infection” value in the data set on HIV-1-BaL [1] and with HIV-1-IIIB [2] was “little or no inhibitory activity” each time. Further, the “inhibitory effect in vitro” value with HIV-1-BaL [1] (in vitro, summary statement) is given as “little or no inhibitory effect”. Besides, the “inhibition of CD4-gp120 binding” value in data set [4] and in [5] was “No inhibition” in each case. Also, the “inhibition of RT activity” value against RT is listed as “inhibition of RT activity was not observed”.
